One experiment deals with HL-60. The experiment can be described thus: Cell differentiation activity towards HL-60 cells assessed in terms of 4-nitro-blue tetrazolium (NBT) reactivity. It counts as functional, Homo sapiens.
For experiment [1], the target named is T1, Vitamin D3 receptor (Gallus gallus) (UniProt O42392).
T1 sequence (whole entry): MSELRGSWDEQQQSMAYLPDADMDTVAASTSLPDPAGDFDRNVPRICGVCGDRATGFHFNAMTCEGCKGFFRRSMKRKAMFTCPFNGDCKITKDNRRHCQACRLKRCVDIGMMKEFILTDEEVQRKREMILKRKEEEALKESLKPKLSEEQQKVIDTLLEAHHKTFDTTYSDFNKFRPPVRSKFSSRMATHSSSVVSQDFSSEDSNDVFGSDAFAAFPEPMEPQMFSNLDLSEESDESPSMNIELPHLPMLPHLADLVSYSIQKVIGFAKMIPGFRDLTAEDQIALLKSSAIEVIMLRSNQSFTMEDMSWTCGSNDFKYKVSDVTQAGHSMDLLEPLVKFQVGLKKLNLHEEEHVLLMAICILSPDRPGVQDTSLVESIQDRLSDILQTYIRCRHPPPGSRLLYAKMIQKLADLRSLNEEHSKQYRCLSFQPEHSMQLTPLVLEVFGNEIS
The experiment in a line: Relative binding affinity for chick intestinal Vitamin D3 receptor (VDR).

Each structure is given as a SMILES string.

`C=C1/C(=C\C=C2/CCC[C@]3(C)[C@@H]([C@H](C)CC[C@H](O)C(C)C)CC[C@@H]23)C[C@@H](O)C[C@@H]1O` had an Activity in the experiment on HL-60 of 18. The molecule also returned a Binding affinity in experiment [1] of 10.

With `C=C1/C(=C\C=C2/CCC[C@]3(C)[C@@H]([C@H](C)CC[C@H](O)C(C)(C)[N+](=O)[O-])CC[C@@H]23)C[C@@H](O)C[C@@H]1O`, the Activity in the experiment with HL-60 is 12. Besides, the Binding affinity in experiment [1] worked out at 10.

`C=C1/C(=C\C=C2/CCC[C@]3(C)[C@@H]([C@H](C)CCCC(C)(C)O)CC[C@@H]23)C[C@@H](O)C[C@@H]1O` [CALCITRIOL]: the Activity with HL-60 turned out to be 100. In experiment [1], this molecule yielded a Binding affinity of 100.

Take `C=C1/C(=C\C=C2/CCC[C@]3(C)[C@@H]([C@H](C)CC[C@@H](O)C(C)(C)[N+](=O)[O-])CC[C@@H]23)C[C@@H](O)C[C@@H]1O`: the Activity in the experiment on HL-60 is reported as 182. Besides, in experiment [1], the Binding affinity was 93.

For the molecule `C=C1/C(=C\C=C2/CCC[C@]3(C)[C@@H]([C@H](C)CC[C@@H](O)C(C)C)CC[C@@H]23)C[C@@H](O)C[C@@H]1O` [TACALCITOL], the Activity in the experiment with HL-60 is given as 182. The same molecule yielded a Binding affinity in experiment [1] of 131.

Values taken from ChEMBL document CHEMBL1131924, “Synthesis and biological evaluation of 1alpha,24-dihydroxy-25-nitrovitamin D3” (1999).
